{"source": "patent US5830903A", "about": "“Triazole substituted quinoline derivatives for gastrointestinal treat-treatment” (Alkaloida Chemical Co., Ltd., priority 1993, dated 1998)", "key": {"[1]": {"tested_on": "alcohol induced increase of gastric glandular capillary permeability", "assay": "Alcohol induced increase of gastric glandular capillary permeability", "assay_type": "in vivo, rats", "conditions": "100% ethanol alone", "protocol": "After 13 minutes 1 ml of 100% ethanol was added perorally and after further 2 minutes the stomachs were removed and their weights measured. […]"}, "[2]": {"tested_on": "lesions caused by intomethacin", "assay": "Indomethacin-induced gastric lesions", "assay_type": "in vivo, female OFA-rats", "conditions": "Rattus norvegicus, po, 6 h, read-out: ED50 mg/kg (p.o.)", "protocol": "The compounds were administered in a volume of 0.5 ml/100 g in a suspension prepared in water with 2-4% Tween-80. After 6 hours the animals were over-anesthesized and their stomachs were opened along the greater curvature. The preparations were investigated by stereomicroscopy using an 8-fold enlargement. The number, size and incidence of erosions and ulcers was noted and compared with the control group treated with the carrier only.\nThe size of the ulcers was determined on the basis of the following score:\n1: ulcer or erosion of the size of 1-2 mm;\n2: ulcer or erosion of the size of 2-3 mm;\n3: ulcer or erosion of the size of 3-4 mm;\n4: ulcer longer than 4 mm;\n5: ulcer longer and broader than 4 mm.\nThe ED50 values were calculated on the basis of ulcer-indexes:\nulcer index=/severeity of lesion x number of lesions/number of animals /n/"}, "[3]": {"tested_on": "ulcers induced by reserpine", "assay": "Reserpine induced ulcers", "assay_type": "in vivo, female OFA rats", "conditions": "40 mg/kg p.o.; reserpine 5 mg/kg s.c.; 18 h", "protocol": "Female OFA rats of 130-160 g weight, starved for 24 hours, were treated at the same time perorally with 40 mg/kg doses of the substances to be tested and with 5 mg/kg s.c. doses of reserpine. After 18 hours the animals were over-anesthesized and the removed stomachs were investigated under stereomicroscope using a 8-fold enlargement. The number of ulcers was counted and their size was evaluated using 0-0.5-1-2-4-8-16-32 scores. The number of animals was 5 for each dose."}, "[4]": {"tested_on": "lesions induced with hydrochloric acid and ethanol", "assay": "Gastric haemorrhages induced by hydrochloric acid in ethanol (cytoprotection)", "assay_type": "in vivo, female rats", "conditions": "for average length of haemmorrhages, change in %: treated vs control; for protection against hydrochloric acid/ethanol lesions (in words): 100 mg/kg", "protocol": "The volume of treatment was 0.5 ml/100 g. […] The average degree of haemorrhages of the treated groups was compared to the control groups treated with the vehicle only. Number of animals was 6-18 in each group."}, "[5]": {"tested_on": "stress ulcer caused by immersion", "assay": "Stress ulcer caused by immersion", "assay_type": "in vivo, Wistar rats", "conditions": "for erosion inhibition % / erosion ulcus-index mm / hyperemia inhibition % / hyperemia ulcer-index mm: n = 7", "protocol": "30 minutes after peroral treatment with the test substance, […]. After seven hours the glandular lesions appearing in the stomach were evaluated according to the score described in Example I.1."}, "[6]": {"tested_on": "histamine stimulated hydrochlorid acid secretion", "assay": "Histamine stimulated gastric acid secretion in Shay rats", "assay_type": "in vivo", "conditions": "histamine alone 10 mg/kg s.c.", "protocol": "The test substances were added on the course of operation intra-duodenally. Immediately after operation each rat obtained 0.50 ml s.c. of a physiological salt solution for hydration. After 4 hours the rats were over-anesthesized, the stomach liquid was collected, centrifugated and the volume determined. […] Measurement of stimulated secretion of gastric acid was also carried out according to the above method."}, "[7]": {"tested_on": "lesions caused by the NSAID naproxen", "assay": "Naproxen-induced gastric erosions, test substance 1 hour after naproxen", "assay_type": "in vivo, WISTAR rats", "conditions": "naproxen alone 75 mg/kg po., n = 7", "protocol": "(§1) Administration of the test substances followed 1 hour after injection. After 4 hours the animals were over-anesthesized with ether and the changes (erosions) were evaluated as in Example I.1. The size of the lesions was characterized by way of the ulcer index."}, "[8]": {"tested_on": "lesions caused by the NSAID piroxicam", "assay": "Piroxicam-induced gastric erosions, test substance 1 hour after piroxicam", "assay_type": "in vivo, WISTAR rats", "conditions": "piroxicam alone 60 mg/kg po., n = 7", "protocol": "as §1"}, "[9]": {"conditions": "60 min before 20 mg/kg indomethacin, from ulcer index, confidence limits 95%"}, "[10]": {"conditions": "20.0 mg/kg p.o., control 61.3 ± 9.8 (substance 6, n = 6), 80.4 ± 8.2 (substance 11, n = 12)"}}, "note": "Read-outs that look alike come from different tables or passages of the source. Marks after values point to notes of the source that are not given here.", "data": [{"smiles": "CCO", "note": "[100% ethanol, reference compound]", "values": [{"measurement": "Evans-blue", "setting": "[1]", "result": "9.45 ± 0.94", "unit": "µg/g"}, {"measurement": "stomach", "setting": "[1]", "result": "1.1 ± 0.15", "unit": "g"}]}, {"smiles": "Clc1ccc2c(-n3cncn3)ccnc2c1", "note": "[Substance 2, 4-(1H-1,2,4-triazole-1-yl)-7-chloro-quinoline]", "values": [{"measurement": "ED50", "setting": "[2]; [9]", "result": 53, "unit": "mg/kg"}]}, {"smiles": "Cc1ccc2c(-n3cncn3)ccnc2c1", "note": "[Substance 3, 4-(1H-1,2,4-triazole-1-yl)-7-methyl-quinoline]", "values": [{"measurement": "ED50", "setting": "[2]; [9]", "result": 74, "unit": "mg/kg"}]}, {"smiles": "Cc1cc(-n2cncn2)c2ccccc2n1", "note": "[Substance 4, 2-methyl-4-(1H-1,2,4-triazole-1-yl)-quinoline]", "values": [{"measurement": "ED50", "setting": "[2]; [9]", "result": 44, "unit": "mg/kg"}]}, {"smiles": "c1ccc2nc(-n3cncn3)ccc2c1", "note": "[Substance 5, 2-(1H-1,2,4-triazole-1-yl)-quinoline]", "values": [{"measurement": "ED50", "setting": "[2]; [9]", "result": 38, "unit": "mg/kg"}]}, {"smiles": "Cc1cc2ccccc2nc1-n1cncn1", "note": "[Substance 6, 2-(1H-1,2,4-triazole-1-yl)-3-methyl-quinoline]", "values": [{"measurement": "number of ulcers, %change compared with control", "setting": "[3]", "result": "+17%"}, {"measurement": "severity of ulcers, %change compared with control", "setting": "[3]", "result": -5, "unit": "%"}, {"measurement": "ulcers per treated", "setting": "[3]", "result": "5/5"}, {"measurement": "average length of haemmorrhages, treated", "setting": "[4]; [10]", "result": "48.0 ± 10.3", "unit": "mm"}, {"measurement": "average length of haemmorrhages, change in %", "setting": "[4]; 20.0 mg/kg p.o.", "result": -22, "unit": "%"}, {"measurement": "ED50", "setting": "[2]; [9]", "result": 29, "unit": "mg/kg"}]}, {"smiles": "Cc1cc2ccc(Br)cc2nc1-n1cncn1", "note": "[Substance 7, 2-(1H-1,2,4-triazole-1-yl)-3-methyl-7-bromo-quinoline]", "values": [{"measurement": "ED50", "setting": "[2]; [9]", "result": 34, "unit": "mg/kg"}]}, {"smiles": "CCc1ccc2cc(C)c(-n3cncn3)nc2c1", "note": "[Substance 8, 2-(1H-1,2,4-triazole-1-yl)-3-methyl-7-ethyl-quinoline]", "values": [{"measurement": "ED50", "setting": "[2]; [9]", "result": 40, "unit": "mg/kg"}]}, {"smiles": "Cc1cc(Sc2nc[nH]n2)c2ccccc2n1", "note": "[Substance 9, 2-methyl-4-(1H-1,2,4-triazole-3-yl-thio)-quinoline]", "values": [{"measurement": "ED50", "setting": "[2]; [9]", "result": 47, "unit": "mg/kg"}]}, {"smiles": "CCc1nc(Sc2cc(C)nc3cc(C)cc(C)c23)n[nH]1", "note": "[Substance 10, 2,5,7-trimethyl-4-(5-ethyl-1H-1,2,4-triazole-3-yl-thio)-quinoline]", "values": [{"measurement": "ED50", "setting": "[2]; [9]", "result": 74, "unit": "mg/kg"}]}, {"smiles": "Cc1cc2ccccc2nc1Sc1nc[nH]n1", "note": "[Substance 11, 2-(1H-1,2,4-triazole-3-yl-thio)-3-methyl-quinoline]", "values": [{"measurement": "number of ulcers, %change compared with control", "setting": "[3]", "result": "+67%"}, {"measurement": "severity of ulcers, %change compared with control", "setting": "[3]", "result": "+37%"}, {"measurement": "ulcers per treated", "setting": "[3]", "result": "5/5"}, {"measurement": "average length of haemmorrhages, treated", "setting": "[4]; [10]", "result": "51.8 ± 10.0", "unit": "mm"}, {"measurement": "average length of haemmorrhages, change in %", "setting": "[4]; 20.0 mg/kg p.o.", "result": -36, "unit": "%"}, {"measurement": "ED50", "setting": "[2]; [9]", "result": 14, "unit": "mg/kg"}]}, {"smiles": "CCc1nc(Sc2nc3ccccc3cc2C)n[nH]1", "note": "[Substance 12, 2-(5-ethyl-1H-1,2,4-triazole-3-yl-thio)-3-methyl-quinoline]", "values": [{"measurement": "ED50", "setting": "[2]; [9]", "result": 74, "unit": "mg/kg"}]}, {"smiles": "CN/C(=N/CCSCc1nc[nH]c1C)NC#N", "note": "[cimetidine, reference compound]", "values": [{"measurement": "erosion inhibition %", "setting": "[5]; 100 mg/kg p.o.", "result": 34, "unit": "%"}, {"measurement": "erosion ulcus-index mm", "setting": "[5]; 100 mg/kg p.o.", "result": "24.4 ± 10.0", "unit": "mm"}, {"measurement": "hyperemia inhibition %", "setting": "[5]; 100 mg/kg p.o.", "result": 21, "unit": "%"}, {"measurement": "hyperemia ulcer-index mm", "setting": "[5]; 100 mg/kg p.o.", "result": "58.1 ± 10.4", "unit": "mm"}, {"measurement": "erosion inhibition %", "setting": "[5]; 200 mg/kg p.o.", "result": 50, "unit": "%"}, {"measurement": "erosion ulcus-index mm", "setting": "[5]; 200 mg/kg p.o.", "result": "18.2 ± 11.2", "unit": "mm"}, {"measurement": "hyperemia inhibition %", "setting": "[5]; 200 mg/kg p.o.", "result": 39, "unit": "%"}, {"measurement": "hyperemia ulcer-index mm", "setting": "[5]; 200 mg/kg p.o.", "result": "48.2 ± 14.6", "unit": "mm"}, {"measurement": "inhibition of hyperemia and erosion (in words)", "setting": "[5]; substance 1 at 50 mg/kg p.o., cimetidine", "result": "no significant inhibition"}, {"measurement": "protection against hydrochloric acid/ethanol lesions (in words)", "setting": "[4]", "result": "practically ineffective"}, {"measurement": "protection against hydrochloric acid/ethanol lesions (in words)", "setting": "[4]; listed as Cimetidin", "result": "practically inactive"}, {"measurement": "average length of haemmorrhages, treated", "setting": "[4]; 300 mg/kg p.o., n = 16, control 74.8 ± 6.4", "result": "64.2 ± 12.3", "unit": "mm"}, {"measurement": "average length of haemmorrhages, change in %", "setting": "[4]; 300 mg/kg p.o.", "result": -24, "unit": "%"}, {"measurement": "ED50", "setting": "[2]", "result": 96, "unit": "mg/kg"}]}, {"smiles": "NCCc1c[nH]cn1", "note": "[histamine, reference compound]", "values": [{"measurement": "acid secretion μEqu/4^h", "setting": "[6]", "result": "1477 ± 80", "unit": "μEqu/4^h"}, {"measurement": "acidity μEqu/ml", "setting": "[6]", "result": "237 ± 18", "unit": "μEqu/ml"}, {"measurement": "volume/4^h", "setting": "[6]", "result": "6.3 ± 0.7", "unit": "mL"}]}, {"smiles": "COc1ccc2cc([C@H](C)C(=O)O)ccc2c1", "note": "[naproxen, reference compound]", "values": [{"measurement": "ulcus index ± SEM", "setting": "[7]", "result": "25.2 ± 6.1"}]}, {"smiles": "CN1C(C(=O)Nc2ccccn2)=C(O)c2ccccc2S1(=O)=O", "note": "[piroxicam, reference compound]", "values": [{"measurement": "ulcus index ± SEM", "setting": "[8]", "result": "23.3 ± 6.4"}]}]}
